Source: a melting point compilation (Tetko et al.; mined from patent text by program, amines drawn as free bases though some values may be those of a salt)
Non-standard residues stand in square brackets, D forms with d. Residues, ends and D or L forms follow the SMILES beside them. *: point of attachment. Npys = O=[N+]([O-])c1cccnc1S*; Mpa = O=C(O)CCS

Row | SMILES | melting point
1 | COC(=O)c1ccccc1S(=O)(=O)NCC(=O)N[C@@H](Cc1ccccc1)C(=O)O | 140 to 143 °C
2 | CCOC(=O)c1cc(-n2c(-c3ccccc3)cc3c2CCc2ccccc2-3)ccc1O | 134 to 135 °C
3 | O=[N+]([O-])c1ccccc1Oc1ccc(OCc2ccc(F)c(F)c2)cc1 | 74 to 75 °C
4 | CC(C)(C)N(C(=O)C(O)(C(=O)O)c1ccccc1)C(C)(C)C (configuration not stated) | 99 to 100 °C
5 | CC1=NCCSC1=NOC(=O)N(C)C | 64 to 65 °C
6 | c1ccc2nc(CN(CCN(Cc3ccc4ccccc4n3)Cc3ccc4ccccc4n3)Cc3ccc4ccccc4n3)ccc2c1 | 196 to 198 °C
7 | CC(C)C[C@@H](C=O)NC(=O)[C@H](Cc1c[nH]cn1)NC(=O)[C@H](Cc1ccccc1)NC(=O)CCSSc1ncccc1[N+](=O)[O-] ([Mpa](Npys)FHL-aldehyde) | 101 to 105 °C
8 | Cc1ccc(-c2csc3nc(C)c(CCCl)c(=O)n23)cc1 | 152 to 165 °C
9 | CCc1cccc(C)c1COc1cc(C(=O)N(C)C)cc2c1nc(C)n2C | 161 to 162 °C
10 | COc1cc(C=CC(=O)CSc2ccccc2)ccc1O | 78 to 80 °C
11 | CC(C)(C)OC(=O)N1CCN(CCCC2(C)Cn3cc([N+](=O)[O-])nc3O2)CC1 (configuration not stated) | 166 to 167 °C
12 | Cc1cccc(-c2cc(C(=O)NCCCCCCCc3ccccc3)cc(-c3cccc(C)c3)c2OCC(=O)O)c1 | 58 to 62 °C
13 | OCCCCCCCCCCCCCCCCCCCCCCC(F)(F)C(F)(F)C(F)(F)C(F)(F)F | 69 to 71 °C
14 | CCN(C)c1nc2sc3c(NCCN4CCOCC4)ncnc3c2c2c1CCC(C)(C)C2 | 144 °C
15 | N#Cc1ccnc(-c2nc(=O)c3ccccc3s2)c1 | 283 to 284 °C
16 | Cc1cc2occc2cn1 | 55 to 56 °C
17 | CCN(C(=O)COc1nc(-c2ccc(N)cc2)nc(C)c1C)c1ccccc1 | 183 to 185 °C
18 | O=C(O)c1coc(Cc2ccccc2)n1 | 155 to 156 °C
19 | CC(=O)Nc1c(C)cccc1CCC(=O)O | 110 °C
20 | CC(C)N1CCC(COc2ncc(C(=O)c3ccc(Cl)cc3)n2C)CC1 | 126 to 127 °C
21 | CC#CCOc1ccc(S(=O)(=O)C2(C(=O)O)CCN(Cc3ccc(C)cc3)CC2)cc1 | 188 °C
22 | CN1CCN(c2cc(Cl)cc3c2c(=O)n(Cc2ccc(Cl)cc2)c(=O)n3Cc2ccccc2)CC1 | 92 to 97 °C
23 | Cc1ccc(-c2cc(C=O)nn2-c2ccc(S(N)(=O)=O)cc2)cc1 | 196 to 198 °C

Row | SMILES | melting point
24 | O=C(NCCN1CCOCC1)Nc1nc2ccc(OCc3c(Cl)cccc3Cl)cc2s1 | 268 to 271 °C
25 | O=C(O)Cc1ccc2c(c1)-c1ccccc1C2 | 166 to 168 °C
26 | C=CCC(CC)(CC)C(=O)O[C@H]1C[C@H](O)C=C2C=C[C@H](C)[C@H](CC[C@@H]3C[C@@H](O)CC(=O)O3)[C@H]21 | 107 to 108 °C
27 | CCCCCCCCCCCCCc1cc[nH]c1 | 32.5 to 33.5 °C
28 | COC(=O)C(Cc1ccc(OC)c(C(=O)NCc2ccc(C(F)(F)F)cc2)c1)SC (configuration not stated) | 127 to 128 °C
29 | NC(=O)n1cc(-c2ccc(Oc3ccc(N)cc3)cc2)cn1 | 158 to 160 °C
30 | CCOC(=O)c1cn(Cc2ccccc2)nc1OCc1ccc(OCc2nc(-c3ccco3)oc2C)c(-c2ccccc2)c1 | 134 to 135 °C
31 | C[C@H](NC(=O)[C@@H](CC(=O)O)NC(=O)c1ccccc1)C(=O)N1CCC[C@H]1C(=O)O | 161 to 163 °C
32 | CCCC(OC)(C(=O)n1ccnc1)c1ccc(Cl)cc1Cl (configuration not stated) | 99 to 101 °C
33 | Cc1ccccc1Nc1nc2ccc(CC(=O)O)cc2o1 | 199 to 200 °C
34 | C#CCOCCn1c(CN2CCCN(C)CC2)nc2ccccc21 | 133 to 136 °C
35 | CC(C)(C)C(=O)c1c[nH]c2ncc(-c3cccc(N4CC5(COC5)C4)c3)nc12 | 260 to 262 °C
36 | N[C@@H](CO)[C@@H](O)[C@H](O)[C@H](O)CO | 129 to 130 °C
37 | COC(COc1ccc(C(=O)C(C)(C)O)cc1)OC | 52 to 53 °C
38 | CC(=O)N(C(=O)N(C)C)c1nnc(C(F)(F)F)s1 | 61 to 63 °C
39 | Cn1c(C(F)(F)F)cc(=O)n(-c2cc(OCc3ccccc3)c(Cl)cc2F)c1=O | 129 to 131 °C
40 | O=S1(=O)CCN2C=CC(Cl)=C(c3ccc(Oc4ccccc4)cc3)C2=N1 | 283 to 284 °C
41 | Cc1oc(-c2ccco2)nc1COc1ccc(CO)cc1Br | 141 to 142 °C
42 | CN1CCN(c2ccc(C(=O)NCCCCCCCCCCCCO[N+](=O)[O-])cn2)CC1 | 74 to 76 °C
43 | CCCCc1nc2ccccn2c(=O)c1-c1ccc(Cl)c(C)c1 | 122 to 124 °C
44 | Cn1ccc(C(=O)c2ccccc2)c1 | 90 to 93 °C
45 | Cc1ccnc(-c2cccc([N+](=O)[O-])c2)c1 | 80 to 82 °C
46 | O=C(NC1CCN(CCCCc2cc(F)cc3c2-c2ccc(F)cc2C3C(=O)NCC(F)(F)F)CC1)c1ccccc1 (configuration not stated) | 177 to 179 °C

Row | SMILES | melting point
47 | CCCc1nc2c(N)nc3ccccc3c2n1CCCCCC(=O)OCC | 112 to 113 °C
48 | O=C(Cl)c1c(Cl)c(Cl)c(Cl)c2c(Cl)c(Cl)c(Cl)c(Cl)c12 | 163 to 165 °C
49 | CC(C)n1c(-c2ccccc2)nc(-c2ccc(F)cc2)c1CO | 190 to 193 °C
50 | C#CC(CC(=O)OC(C)(C)C)N=Cc1ccccc1 (configuration not stated) | 199 to 200 °C
51 | CCOC(=O)c1c(CN(CC)CC)nc2sc3c(c2c1-c1ccc(OC)c(OC)c1)CN(C(=O)c1ccc(Cl)cc1)CC3 | 91 to 92 °C
52 | COc1cc(/C=C/c2ccc(C(C)(C)C)cc2)cc(OC)c1OC | 127 to 128 °C
53 | COC(=O)Cc1cc(Br)c(Sc2ccc(O)c(Cc3ccc(Cl)nn3)c2)c(Br)c1 | 133 to 135 °C
54 | O=c1[nH]c2ccccc2n1CCN1CCC(C(c2ccc(F)cc2)c2ccc(F)cc2)CC1 | 104 to 106 °C
55 | Cn1c(=O)c(-c2c(Cl)cccc2Cl)cc2cnc(Nc3ccc(Cl)cc3)nc21 | 255 to 256 °C
56 | O=C(NC(=S)N1CCC(=O)C(C(c2ccccc2)c2ccccc2)C1)c1ccccc1 (configuration not stated) | 168 to 169 °C
57 | CCCn1nc(C(C)C)c(C(=O)O)c1Cc1ccc(-c2ccccc2S(=O)(=O)NC(=O)OCC(C)C)c(F)c1 | 77 to 82 °C
58 | CC1(C)CC(=C(c2ccc(F)cc2)c2ccc(OCC#N)cc2)CC(C)(C)C1 | 100 to 101 °C
59 | COc1c(Cl)ccc(-c2cc(N)c(Cl)c(C(=O)NOC3CCCCO3)n2)c1F (configuration not stated) | 176 to 179 °C
60 | Cc1cc(C=Cc2ccccc2OCC(O)CNC(C)(C)C)on1 (configuration not stated) | 83 to 85 °C
61 | COCCOc1ccc(C=NOC)cc1O | 63 to 64 °C
62 | CCc1[nH]nc2c1C(=O)c1c(NC(=O)CN3CCC(CN)CC3)cccc1-2 | 174 to 176 °C
63 | Clc1ccc2c(c1)C(c1ccsc1)=NCC1COCCN21 (configuration not stated) | 207 to 212 °C
64 | CCOC(=O)c1cc(=O)c2c(OCC(O)COc3ccc(C#N)cc3)cccc2o1 (configuration not stated) | 137 to 139 °C
65 | Cc1ccc(C=CCC(C(=O)C=Cc2ccc(Cl)cc2)c2ccccc2)cc1 (configuration not stated) | 114 to 118 °C
66 | COC(=O)Cc1coc2c(O)cccc12 | 58 to 59 °C
67 | O=c1c(-c2ccccc2)c(CSc2ncnc3[nH]cnc23)oc2ccc(Br)cc12 | 214 to 218 °C

Continued, values first:

Row | melting point | SMILES
68 | 130 °C | O=[N+]([O-])c1ccc(S(=O)(=O)CCCl)cc1
69 | 99 to 100 °C | COC(=S)c1ccncc1Cc1ccc(OC)cc1
70 | 269 to 272 °C | COCc1nc2c(NCc3c(C)cccc3C)cc(C(=O)O)cc2n1C
71 | 131 °C | COc1ccccc1-c1cccc(C(c2ccccc2)c2ccccc2)c1O
72 | 124 to 126 °C | Cc1noc(C)c1Cn1cc(-n2c(=O)n(C)n(Cc3ccccc3)c2=O)cn1
73 | 142 to 144 °C | Cc1ccc(C2Sc3cc(C)ccc3NC(=O)C2=O)cc1 (configuration not stated)
74 | 228 to 229 °C | CS(=O)(=O)c1ccc(-c2cc(C(F)(F)F)nn2-c2ccc(F)cc2)cc1F
75 | 89 to 91 °C | CCC(C)(C)c1c(OCc2ncnn2C)nn2c(-c3ccccc3F)nncc12
76 | 117 to 119 °C | COc1cc2c(-c3ccccc3)csc2c(Cl)c1Cl
77 | 98 to 100 °C | CC(C)(C)OC(=O)N1CCN(c2cccc3ccoc23)CC1
78 | 79 to 81 °C | Cc1ccc(Oc2ccc(OC(=O)N3CCC(C)CC3)cc2)cc1
79 | 59 to 62 °C | CCCCc1oc2ccccc2c1C(=O)NCc1ccc2c(-c3ccc(Cl)cc3)c(OC(Cc3ccccc3)C(=O)OC)ccc2c1 (configuration not stated)
80 | > 300 °C | NC(N)=Nc1nc(-c2nc(N)sc2C=NS(N)(=O)=O)cs1
81 | 192 to 193 °C | CNc1cc(F)ccc1-c1c(C#N)n[nH]c1-c1ccc(S(C)(=O)=O)cc1
82 | 113 to 115 °C | Oc1cccc(CN2CCOCC2)c1
83 | 116 °C | CC(C)(CF)C(=O)C(Oc1cccc(F)n1)n1cncn1 (configuration not stated)
84 | 86 °C | CC(C)(C)OC(=O)N=C(NCCCCNC(=O)[C@H](Cc1ccccc1)NC(=O)CCCC(=O)O)NC(=O)OC(C)(C)C
85 | 164 to 166 °C | Cc1cc(NS(=O)(=O)c2ccc(Br)cc2)cc(C)c1S(=O)(=O)C[N+](=O)[O-]
86 | 185 to 186 °C | N#CN=C(Nc1cccnc1)NC1CCCCC1
87 | 111 to 114 °C | CCn1c2ccc(C)cc2c2ccc3ccccc3c21
88 | 154 to 156 °C | CC1(C)CC(=O)c2cc(C#N)c(NC3CCCC3)nc2C1
89 | 127 to 132 °C | CCCCCN1C(=O)C(NC(=O)C2CCc3ccccc3C2)c2ccccc21 (configuration not stated)
90 | 63 to 64 °C | Cc1nc(OCCCC2CO2)cc(-c2ccc(F)cc2)n1 (configuration not stated)
91 | 136 to 140 °C | CCN1CCC(CNC(=O)c2cc(Cl)c(N)[nH]c2=O)CC1
92 | 290 to 293 °C | O=C(O)C1Cc2cc3c(=O)c4ccccc4oc3c(Cl)c2O1 (configuration not stated)
93 | 116 to 117 °C | O=C(NCc1ccc2ccn(C3CCN(CCc4ccc(F)cc4)CC3)c2c1)C1CC1
94 | 141 to 143 °C | c1ccc(C2=Nc3ccccc3N3CCc4cccc2c43)cc1
95 | 111 to 112 °C | CC(=O)Nc1ccc2c(c1)NC(=O)C(CCCN1CCN(c3ccc(F)cc3)CC1)O2 (configuration not stated)
96 | 152 to 153 °C | CC1=NN(C(=O)NS(=O)(=O)c2ncccc2C(F)(F)F)C(C)(c2ccccc2)C1 (configuration not stated)
97 | 115 °C | O=C1NCCNC1c1ccc(F)cc1 (racemic)
